Experimental data from patent US20080146593A1, “Substituted 5-Phenyl Pyrimidines I In Therapy” (Basf Aktiengesellschaft, priority 2005, published 2008).
Blank lines part the entries; values can stand above or below the compound they belong to.

Tested on: HeLa cells
Test: Measurement of the cell cycle inhibition in HeLa cells
Assay type: cell-based
Details: HeLa B cells, 20 h incubation with compound; FACS ratio G0/G1 to G2/M vs DMSO; concentration at which 50% of cells are in cell cycle arrest
Procedure: Measurement of the Cell Cycle Inhibition in HeLa Cells—Test Procedure:
HeLa B cells are grown in DMEM (Life Technologies Cat No 21969-035) supplemented with 10% Fetal Calf Serum (FCS, Life Technologies Cat No 10270-106) in 180 cm^2 Flasks at 37° C., 92% humidity and 7% CO2.
Cells are seeded at 5×10^4 cells per well in a 24-well plate. Twenty hours later the compounds are added such that the final concentration is 1×10^−6, 3.3×10^−7, 1.1×10^−7, 3.7×10^−8, 1.2×10^−8 and 1×10^−9 M in a final volume of 500 μl. DMSO alone is added to 6 wells as a control. Cells are incubated with the compounds as above for 20 h. Then cells are observed under the microscope to check for cell death, and the 24-well plate is then centrifuged at 1200 rpm for 5 min at 20° C., acceleration position 7 and break position 5 (Eppendorf centrifuge 5804R).
The supernatant is removed and the cells lysed with 0.5 ml RNase Buffer (10 mM NaCitrate, 0.1% Nonidet NP40, 50 μg/ml RNase, 10 μg/ml Propidium iodide) per well. The plates are then incubated for at least 30 min in the dark at RT and the samples then transferred to FACS tubes. Samples are measured in a FACS machine (Beckton Dickinson) at the following settings:
Instrument Settings of the FACS Calibur:
The ratio of cells in G0/G1-phase to G2/M phase is calculated and compared to the value for the controls (DMSO) only. Results are given in table 2 as the IC50 value calculated from the concentration curve plotted against the cell cycle ratio and indicate the compound concentration at which 50% of cells are in cell cycle arrest after treatment with the compound.

Structure (SMILES): CC1CCN(c2nc(-c3nccs3)nc(Cl)c2-c2c(F)cc(F)cc2F)CC1 [Example 39]
IC50: 26 nM

Structure (SMILES): CC(C)[C@H](C)Nc1nc(C(N)=NO)nc(Cl)c1-c1c(F)cccc1F [Example 195]
IC50: 20 nM

Structure (SMILES): CC(C)[C@@H](C)Nc1nc(-n2cncn2)nc(Cl)c1-c1c(F)cc(F)cc1F [Example 60]
IC50: 19 nM

Structure (SMILES): Cc1nc(-n2ccnn2)nc(N2CCC(C)CC2)c1-c1c(F)cccc1Cl [Example 166]
IC50: 42 nM

Structure (SMILES): CCC(C)Nc1nc(-n2ccnn2)nc(Cl)c1-c1c(C)cccc1F (stereo not drawn) [Example 111]
IC50: 29 nM

Structure (SMILES): CCC(C)Nc1nc(C(N)=NO)nc(Cl)c1-c1c(F)cc(F)cc1F (stereo not drawn) [Example 146]
IC50: 32 nM

Structure (SMILES): CC[C@H](C)Nc1nc(-n2cccn2)nc(Cl)c1-c1ccc(C)cc1F [Example 102]
IC50: 50 nM

Structure (SMILES): CCC(C)Nc1nc(-n2ccnn2)nc(Cl)c1-c1c(F)cccc1F (stereo not drawn) [Example 114]
IC50: 41 nM

Structure (SMILES): CC(CO)Nc1nc(-n2cc(Br)cn2)nc(Cl)c1-c1c(F)cc(F)cc1F (stereo not drawn) [Example 124]
IC50: 45 nM

Structure (SMILES): Fc1cc(F)c(-c2c(Cl)nc(-n3cccn3)nc2N2CCCCC2)c(F)c1 [Example 51]
IC50: 6.5 nM

Structure (SMILES): COc1cc(F)c(-c2c(Cl)nc(-n3ccnn3)nc2N2CCC(C)CC2)c(F)c1 [Example 69]
IC50: 21 nM

Structure (SMILES): CCC(C)Nc1nc(-n2cncn2)nc(Cl)c1-c1c(F)cccc1F (stereo not drawn) [Example 113]
IC50: 49 nM

Structure (SMILES): C=CCCN(C)c1nc(-n2cccn2)nc(Cl)c1-c1ccc(F)cc1Cl [Example 132]
IC50: 46 nM

Structure (SMILES): CC(C)[C@H](C)Nc1nc(-c2nccs2)nc(Cl)c1-c1c(F)cccc1Cl [Example 136]
IC50: 29 nM

Structure (SMILES): CC(C)[C@H](C)Nc1nc(C(N)=NO)nc(Cl)c1-c1ccc([N+](=O)[O-])cc1Cl [Example 192]
IC50: 30 nM

Structure (SMILES): CC(C)Nc1nc(-c2cnccn2)nc(Cl)c1-c1c(F)cccc1Cl [Example 25]
IC50: 24 nM

Structure (SMILES): C=CCN(CC=C)c1nc(-n2cc(Br)cn2)nc(Cl)c1-c1ccc(F)cc1Cl [Example 134]
IC50: 50 nM

Structure (SMILES): C[C@H](Nc1nc(C(N)=NO)nc(Cl)c1-c1cc(F)ccc1Cl)C(F)(F)F [Example 220]
IC50: 36 nM

Structure (SMILES): C=CCN(C)c1nc(-n2cc(Br)cn2)nc(Cl)c1-c1c(F)cc(F)cc1F [Example 123]
IC50: 49 nM

Structure (SMILES): Cc1nc(-c2nc(Cl)c(-c3c(F)cc(F)cc3F)c(N[C@H](C)C(C)C)n2)cs1 [Example 70]
IC50: 35 nM

Structure (SMILES): CON=C(N)c1nc(Cl)c(-c2ccc(F)cc2Cl)c(N[C@@H](C)C(F)(F)F)n1 [Example 211]
IC50: 24 nM

Structure (SMILES): CCOC(=O)c1cc(C)nn1-c1nc(Cl)c(-c2c(F)cc(F)cc2F)c(N[C@H](C)C(C)C)n1 [Example 88]
IC50: 44 nM

The next lines start with the values.

IC50: 45 nM
Structure (SMILES): CC(C)Nc1nc(-n2cc(Br)cn2)nc(Cl)c1-c1c(F)cc(F)cc1F [Example 17]

IC50: 47 nM
Structure (SMILES): C[C@H](Nc1nc(C#N)nc(Cl)c1-c1c(F)cc(F)cc1F)C(F)(F)F [Example 10]

IC50: 39 nM
Structure (SMILES): CC(C)Nc1nc(-n2nccc2[N+](=O)[O-])nc(Cl)c1-c1c(F)cc(F)cc1F [Example 23]

IC50: 22 nM
Structure (SMILES): Cc1cnn(-c2nc(Cl)c(-c3c(F)cc(F)cc3F)c(N[C@@H](C)C(F)(F)F)n2)c1Cl [Example 155]

IC50: 1.5 nM
Structure (SMILES): C[C@@H](Nc1nc(C(N)=NO)nc(Cl)c1-c1c(F)cc(F)cc1F)C(F)(F)F [Example 137]

IC50: 18 nM
Structure (SMILES): CC(=NO)c1nc(Cl)c(-c2c(F)cc(F)cc2F)c(N[C@@H](C)C(F)(F)F)n1 [Example 209]

IC50: 27 nM
Structure (SMILES): Cc1c[nH]n(-c2nc(Cl)c(-c3c(F)cc(F)cc3F)c(N[C@@H](C)C(F)(F)F)n2)c1=O [Example 153]

IC50: 21 nM
Structure (SMILES): C[C@H](Nc1nc(-n2nccc2[N+](=O)[O-])nc(Cl)c1-c1c(F)cc(F)cc1F)C(F)(F)F [Example 7]

IC50: 8.3 nM
Structure (SMILES): C[C@H](Nc1nc(-n2ccnn2)nc(Cl)c1-c1c(F)cc(F)cc1F)C(F)(F)F [Example 205]

IC50: 24 nM
Structure (SMILES): CCOC(=O)C(C)C=NNc1nc(Cl)c(-c2c(F)cc(F)cc2F)c(N[C@@H](C)C(F)(F)F)n1 (stereo partly drawn) [Example 152]

IC50: 24 nM
Structure (SMILES): C[C@H](Nc1nc(-n2ccc(Br)n2)nc(Cl)c1-c1c(F)cc(F)cc1F)C(F)(F)F [Example 38]
